Experiment: Organic solvent solvency with DCOI and retaining additive testing
Type: physicochemical
Design: key: Low: low solvency; Medium: medium solvency; High: high solvency
Conditions: 23.5% DCOI and 25.0% Chempol 801-2164 in the solvent; 40 degrees Fahrenheit; separation, precipitation, turbidity
Method: For testing the solvency (i.e., ability to dissolve) of the organic solvent for DCOI and the retaining additive, 4.7 gram of DCOI and 5.0 g of retaining additive were dissolved in 10.3 gram of organic solvent to make a 23.5% of DCOI and 25.0% resin solution in a clear 20 ml glass vial. Thereafter, the vial is stored at a selected temperature (i.e., ambient temperature, 40 degrees Fahrenheit, or 120 degree Fahrenheit or whenever a crosslinking may occur). The vial is monitored for up to 7 days for phase separation, precipitation, and turbidity, which may indicate incompatibility between the organic solvent and the retaining additive and/or DCOI. The as prepared solution is maintained at room temperature and 40 degrees Fahrenheit for up to 7 days or whenever a phase separation, precipitation or solution turbidity event happens to disqualify the solution.
The solvents were tested at 40 degrees Fahrenheit and rated low solvency, medium solvency, or high solvency based on the amount, if any, of separation, precipitation, and turbidity observed in each solution.

- DCOI/Resin Solvency: High
SMILES: OCc1ccccc1 [Benzyl Alcohol]

From patent publication US12636810B2, “Wood preservative composition comprising 4,5-dichloro-2-octylisothiazol-3(2H)-one, a method treating a wood substrate therewith, and a wood product produced therefrom” (KOPPERS PERFORMANCE CHEMICALS, INC., priority 2021, dated 2026)
